Earlier results as cited in patent US10590413B2, “Chiral control” (WAVE LIFE SCIENCES LTD., priority 2012, dated 2020).
Like-named read-outs stand apart in the source and are kept apart here.

Experiments:
NK Lytic Activity = conditions: cited from earlier work; for NK Lytic Activity (LU): human PBMC cultured with ODN 6 μg/ml for 24 hr, lysis of 51Cr-labeled K562 cells; for LU (NK lytic activity): human PBMC, ODN 6 μg/ml for 24 hr, lysis of Cr-labeled K562 cells, cells alone 0.01
NK activity = conditions: cited from earlier work; for % 2C11 Specific Lysis, Effector:Target 50:1 / % 2C11 Specific Lysis, Effector:Target 100:1: 2C11 targets; for % YAC-1 Specific Lysis, Effector:Target 50:1 / % YAC-1 Specific Lysis, Effector:Target 100:1: YAC-1 targets
Mouse B Cells = conditions: mean and std. dev. of at least 3 experiments, compared to wells with no added ODN, cited from earlier work
[1] = test system: Murine IL-6 production and B cell activation; conditions: cited from earlier work; for IL-6 (pg/ml) CH12.LX: CH12.LX cells; for SI (stimulation index, [3H] uridine uptake, fold increase from unstimulated control): cells stimulated with 20 μM CpG O-ODN; for SI (stimulation index, [3H] uridine uptake, fold increase from unstimulated control) / SI (stimulation index, [3H] uridine uptake): mean ± SD of triplicates; for SI (stimulation index, [3H] uridine uptake): fold increase from unstimulated control, 20 μM CpG O-ODN; for IgM: measured by ELISA, unstimulated culture 547 ± 82 ng/ml; for IL-6 (pg/ml) SPLENIC B CELL: splenic B cells
human PBMC = conditions: cited from earlier work
[2] = unstimulated control ≤10 pg/ml, US 6,239,116 Table 2
[3] = ODN 12 μg/ml, 4 hr, 10% autologous serum, level above wells with no ODN, ELISA
[4] = ODN 12 μg/ml, 24 hr, 10% autologous serum, level above wells with no ODN, ELISA

## 1834 (DNA TCTCCCAGCGGGCGCAT; chemistry not given here) [Oligonucleotide 1834]
NK Lytic Activity
  NK Lytic Activity (LU): 0.00 LU
  LU (NK lytic activity): 0.00 LU

## 1825 (DNA CTGCTGAGACTGGAG; chemistry not given here) [Oligonucleotide 1825]
NK Lytic Activity
  NK Lytic Activity (LU): 0.01 LU
  LU (NK lytic activity): 0.01 LU

## 1829 (DNA ATGACGTTCCTGACGTT; chemistry not given here) [Oligonucleotide 1829]
NK Lytic Activity
  NK Lytic Activity (LU): 0.42 LU
  LU (NK lytic activity): 0.42 LU

## 1828 (DNA TCAGCGTGCGCC; chemistry not given here) [Oligonucleotide 1828]
NK Lytic Activity
  NK Lytic Activity (LU): 0.01 LU
  LU (NK lytic activity): 0.01 LU

## 1781 (DNA ACCATGGACGTTCTGTTTCCCCTC; chemistry not given here) [Oligonucleotide 1781]
NK Lytic Activity
  NK Lytic Activity (LU): 0.38 LU
  LU (NK lytic activity): 0.38 LU

## 1836 (DNA TCTCCCAGCGCGCGCCAT; chemistry not given here) [Oligonucleotide 1836]
NK Lytic Activity
  NK Lytic Activity (LU): 0.46 LU
  LU (NK lytic activity): 0.46 LU

## 1761 (DNA TACCGCGTGCGACCCTCT; chemistry not given here) [Oligonucleotide 1761]
NK Lytic Activity
  NK Lytic Activity (LU): 0.05 LU
  LU (NK lytic activity): 0.05 LU

## 1754 (DNA ACCATGGACGATCTGTTTCCCCTC; chemistry not given here) [Oligonucleotide 1754]
NK Lytic Activity
  NK Lytic Activity (LU): 0.02 LU
  LU (NK lytic activity): 0.02 LU

## 1779 (DNA ACCATGGACGTACTGTTTCCCCTC; chemistry not given here) [Oligonucleotide 1779]
NK Lytic Activity
  NK Lytic Activity (LU): 0.02 LU
  LU (NK lytic activity): 0.02 LU

## 1777 (DNA ACCATGGACGAGCTGTTTCCCCTC; chemistry not given here) [Oligonucleotide 1777]
NK Lytic Activity
  NK Lytic Activity (LU): 0.05 LU
  LU (NK lytic activity): 0.05 LU

## 1 (DNA GCTAGACGTTAGCGT; chemistry not given here) [Oligonucleotide 1]
NK activity; Effector:Target 50:1
  % 2C11 Specific Lysis, Effector:Target 50:1: 38.7%
  % 2C11 Specific Lysis: 38.7%
  % YAC-1 Specific Lysis: 16.1%
  % YAC-1 Specific Lysis, Effector:Target 50:1: 16.1%
NK activity; Effector:Target 100:1
  % 2C11 Specific Lysis, Effector:Target 100:1: 47.2%
  % 2C11 Specific Lysis: 47.2%
  % YAC-1 Specific Lysis: 24.5%
  % YAC-1 Specific Lysis, Effector:Target 100:1: 24.5%
Mouse B Cells; US 6,239,116 Table 1
  Stimulation Index, 3H Uridine: 6.1 ± 0.8
  Stimulation Index, IgM Production: 17.9 ± 3.6
Mouse B Cells
  Stimulation Index, 3H Uridine: 6.1 ± 0.8

## 3Dd (DNA GAGAACGCTGGACCTTCCAT; Z modified cytosine, further chemistry not given here) [Oligonucleotide 3Dd]
NK activity; Effector:Target 50:1
  % 2C11 Specific Lysis, Effector:Target 50:1: 37.0%
  % 2C11 Specific Lysis: 37.0%
  % YAC-1 Specific Lysis: 17.1%
  % YAC-1 Specific Lysis, Effector:Target 50:1: 17.1%
NK activity; Effector:Target 100:1
  % 2C11 Specific Lysis, Effector:Target 100:1: 40.0%
  % 2C11 Specific Lysis: 40.0%
  % YAC-1 Specific Lysis: 27.0%
  % YAC-1 Specific Lysis, Effector:Target 100:1: 27.0%
Mouse B Cells; US 6,239,116 Table 1
  Stimulation Index, 3H Uridine: 1.2 ± 0.2
  Stimulation Index, IgM Production: 1.0 ± 0.4
Mouse B Cells
  Stimulation Index, 3H Uridine: 1.2 ± 0.2

## 1778 (DNA ACCATGGACGACCTGTTTCCCCTC; chemistry not given here) [Oligonucleotide 1778]
NK Lytic Activity
  NK Lytic Activity (LU): 0.01 LU
  LU (NK lytic activity): 0.01 LU

## 1823 (DNA GCATGACGTTGAGCT; chemistry not given here) [Oligonucleotide 1823]
NK Lytic Activity
  NK Lytic Activity (LU): 0.08 LU
  LU (NK lytic activity): 0.08 LU

## 1776 (DNA ACCATGGACGAACTGTTTCCCCTC; chemistry not given here) [Oligonucleotide 1776]
NK Lytic Activity
  NK Lytic Activity (LU): 0.03 LU
  LU (NK lytic activity): 0.03 LU

## 1780 (DNA ACCATGGACGGTCTGTTTCCCCTC; chemistry not given here) [Oligonucleotide 1780]
NK Lytic Activity
  NK Lytic Activity (LU): 0.29 LU
  LU (NK lytic activity): 0.29 LU

## 1842 (DNA TCGTCGCTGTCTCCGCTTCTT; chemistry not given here) [Oligonucleotide 1842]
NK Lytic Activity
  NK Lytic Activity (LU): 0.06 LU
  LU (NK lytic activity): 0.06 LU

## 1634 (DNA TCCATGTCGCTCCTGATGCT; chemistry not given here) [Oligonucleotide 1634]
[1]
  IL-6 (pg/ml) CH12.LX: 1049 ± 223 pg/mL
  SI (stimulation index, [3H] uridine uptake, fold increase from unstimulated control): 9.2 ± 0.9
  SI (stimulation index, [3H] uridine uptake): 9.2 ± 0.9
  IgM: 6256 ± 261 ng/mL
  IL-6 (pg/ml) SPLENIC B CELL: 1671 ± 175 pg/mL
[1]; [2]
  IL-6 (pg/ml) CH12.LX: 1049 ± 223 pg/mL
  IL-6 (pg/ml) SPLENIC B CELL: 1671 ± 175 pg/mL
Human PBMC; [3]
  TNF-α: 400 pg/mL
Human PBMC; [4]
  GM-CSF: 85 pg/mL
  IFN-γ: 40 pg/mL
  IL-6: 300 pg/mL
  IL-12: 400 pg/mL
Human PBMC
  GM-CSF: 85
  IFN-γ: 40
  IL-6: 300
  IL-12: 200
  TNF-α: 400

## 1824 (DNA CACGTTGAGGGGCAT; chemistry not given here) [Oligonucleotide 1824]
NK Lytic Activity
  NK Lytic Activity (LU): 0.01 LU
  LU (NK lytic activity): 0.01 LU

## 1708 (DNA TCCATCACGTGCCTGATGCT; chemistry not given here) [Oligonucleotide 1708]
[1]
  SI (stimulation index, [3H] uridine uptake, fold increase from unstimulated control): 1.5 ± 0.1
  SI (stimulation index, [3H] uridine uptake): 1.5 ± 0.1
  IgM: 466 ± 109 ng/mL
  IL-6 (pg/ml) SPLENIC B CELL: 59 ± 3 pg/mL
[1]; [2]
  IL-6 (pg/ml) SPLENIC B CELL: 59 ± 3 pg/mL
Human PBMC; [3]
  TNF-α: 10 pg/mL
Human PBMC; [4]
  IFN-γ: 17 pg/mL
  IL-6: 270 pg/mL
  IL-12: 10 pg/mL
Human PBMC
  GM-CSF: 0
  IFN-γ: 17
  IL-6: 270
  IL-12: 0
  TNF-α: 10

## 1614 (DNA TCCATGACGGTCCTGATGCT; chemistry not given here) [Oligonucleotide 1614]
[1]
  IL-6 (pg/ml) CH12.LX: 1533 ± 321 pg/mL
  SI (stimulation index, [3H] uridine uptake, fold increase from unstimulated control): 10.8 ± 0.6
  SI (stimulation index, [3H] uridine uptake): 10.8 ± 0.6
  IgM: 7558 ± 414 ng/mL
  IL-6 (pg/ml) SPLENIC B CELL: 1812 ± 103 pg/mL
[1]; [2]
  IL-6 (pg/ml) CH12.LX: 1533 ± 321 pg/mL
  IL-6 (pg/ml) SPLENIC B CELL: 1812 ± 103 pg/mL
Human PBMC; [3]
  TNF-α: 31 pg/mL
Human PBMC; [4]
  GM-CSF: 50 pg/mL
  IFN-γ: 0 pg/mL
  IL-6: 550 pg/mL
  IL-12: 31 pg/mL

## 1851 (DNA TCCTGACGTTCCTGACGTT; chemistry not given here) [Oligonucleotide 1851]
NK Lytic Activity
  NK Lytic Activity (LU): 2.32 LU
  LU (NK lytic activity): 2.32 LU

## 1618 (DNA TCCATGACGTTCCTGATGCT; chemistry not given here) [Oligonucleotide 1618]
[1]
  IL-6 (pg/ml) CH12.LX: 2109 ± 291 pg/mL
  SI (stimulation index, [3H] uridine uptake, fold increase from unstimulated control): 12.9 ± 0.7
  SI (stimulation index, [3H] uridine uptake): 12.9 ± 0.7
  IgM: 10425 ± 674 ng/mL
  IL-6 (pg/ml) SPLENIC B CELL: 2596 ± 166 pg/mL
[1]; [2]
  IL-6 (pg/ml) CH12.LX: 2109 ± 291 pg/mL
  IL-6 (pg/ml) SPLENIC B CELL: 2596 ± 166 pg/mL
Human PBMC; [3]
  TNF-α: 60 pg/mL
Human PBMC; [4]
  GM-CSF: 15.6 pg/mL
  IFN-γ: 15.6 pg/mL
  IL-6: 300 pg/mL
  IL-12: 62 pg/mL
Human PBMC
  GM-CSF: 15.6
  IFN-γ: 15.6
  IL-6: 300
  IL-12: 62
  TNF-α: 60
